Test: Uptake of doxorubicin into J6456 mouse tumors
Conditions: in vivo, J6456 mice, IV, fluorometric (Table 14), read-out: Percent of Injected Dose (DXR)/q Tumor (SD)
Protocol: Sized MLVs having one of the three lipid compositions shown in Table 14 below were prepared as above. Doxorubicin was included in the hydration buffer, at a concentration of about 5 mg/ml, and free drug was removed from the sized liposomes by gel filtration.
Mice innoculated with J6456 lymphoma cells were injected IV with the MLVs (1 umole phospholipid/animal) or with an equivalent amount of free doxorubicin. Tissue distribution of the drug, 24 hours post administration, was determined fluorometrically, with the results shown in Tables 13 below.

COc1cccc2c1C(=O)c1c(O)c3c(c(O)c1C2=O)C[C@@](O)(C(=O)CO)C[C@@H]3O[C@H]1C[C@H](N)[C@H](O)[C@H](C)O1 [FREE DXR, doxorubicin]
tissue uptake at 24 h: 0.4 %ID/g
